These results are taken from article PMC10673615, “Quercetin-1,2,3-Triazole Hybrids as Multifunctional Anti-Alzheimer’s Agents” (Molecules, 2023).

Like-named read-outs stand apart in the source and are kept apart here. Bounds are passed on as bounds.

Series [1] has as its system MCF-7 cells. Kind of series: in vitro. To be noted: MCF-7. How it is done: (§1) Given the importance of oxidative stress-induced apoptosis of neuronal cells in AD, we present here a study to investigate the effect of quercetin-1,2,3-triazole hybrids on H2O2-induced oxidative damage in cultured MCF-7 cells, used as a human cell model. Viability was assessed with the WST-1 test in the absence and in the presence of an oxidative stressor (10^−4 M H2O2).
(§2) MCF-7 (Human breast adenocarcinoma (MERCK—# 86012803-DNA-5UG), Database Name: ECACC collection, Accession Numbers: 86012803) was the cell line elected as a cell injury model for the study of the potential protective effect of the butyrylcholinesterase inhibitors (hybrids) against hydrogen peroxide-induced oxidative stress. Cytotoxicity of the hybrids was also evaluated.
The compounds to be tested were firstly dissolved in dimethyl sulfoxide (DMSO) at a concentration of 4 × 10^−2 M. They were then diluted in cell growth media (EMEM) (supplemented with FBS 10%) with 0.25% DMSO to obtain solutions between 6.25 and 50.00 µM.
Eagle’s Minimum Essentia Medium (EMEM), including 10% fetal bovine serum (FBS), 100 IU/mL penicillin, and 100 μg/mL streptomycin, was used to culture MCF-7 cells at 37 °C in 5% CO2 atmosphere incubator with media replenished every 2 days. A total of 5 × 10^3 cells were cultured in 96-well plates and incubated for 72 h prior to stimulus application.
(§3) The culture medium was subsequently replaced with different final concentrations (6.25–50 μM) of the compounds to be tested. Negative controls were prepared, incubating cells in culture media.
(§4) Parallel experiments were performed for cytotoxicity assessment and for protective effect against hydrogen peroxide-induced oxidative stress evaluation. First, 10 μL of PBS was added in the designated wells; second, 10 μL of H2O2 (reaching a final concentration of 100 µM) was added. Following a 2 h incubation period at 37 °C in 5% CO2 atmosphere incubator, cellular viability was measured by adding WST-1 dehydrogenases substrate and incubating for 1 h, and the amount of formazan dye produced was evaluated by measuring the absorbance at 440 nm.

Series [2] concerns MCF-7 cells. The series is described as follows: Protective assay against hydrogen peroxide-induced oxidative stress in MCF-7 cells. The format is cell-based, Human. To be noted: 100 µM H2O2, 2 h. How it is done: as §1, §2, §3, §4
In series [3] the test system is Artemia salina. The series is described as follows: Artemia salina lethal toxicity assay. It is filed as in vivo. How it is done: (§5) Artemia salina was used for in vivo general toxicity assessment of the promising hybrids IVb, IVd, and IIf; the results are shown in Table 4 and Figure 7. K2Cr2O7 was used as a control. Hybrid IVd presented the lowest toxicity.
(§6) The ARTOXKIT M protocol was used. The percentage of dyed nauplii of Artemia salina, grown in the presence of variable concentrations of the inhibitor compounds, was measured to determine the LC50 values. A test with K2Cr2O7 was used for quality control.

The target of series [4] is T1, eeAChE (Electrophorus electricus, UniProt O42275).
T1 construct: catalogue number not given
The series is described as follows: Ellman cholinesterase inhibitory assay, eeAChE screening. As to conditions: compound 100 µM; substrate 3 mM. The format is biochemical. How it is done:
(§7) Firstly, the inhibitory activity of the quercetin-1,2,3-triazole hybrids I–IV was screened in vitro on eeAChE and eqBuChE at a concentration of 100 μM (these enzymes are considered as models of the human isoform). The ChE inhibitory activity of all compounds was evaluated using the method of Ellman.
(§8) The inhibitory activities of title compounds against commercially available cholinesterases (eeAChE) (Electrophorus electricus, Type V-S), eqBuChE (equine serum), were conducted using minor modifications of Ellman’s assay. Nine different concentrations ([…], 37.5, 75, 150, and 300 μM in H2O:DMSO (50:50)) of each test compound were used to determine the enzyme-inhibition activity. Briefly, 55 μL of 50 mM Tris-HCl buffer at pH 8, 25 μL of eqBuChE (0.03 U/mL), 20 μL of the test or standard compounds, and 125 μL of DTNB (0.8 mM) were incubated in 96-well plates at 37 °C for 15 min. Further, 25 μL of the substrate, BTCI (0.8 mM), was added, and the solution was incubated for additional 15 min. Finally, the absorbance was measured at 412 nm wavelength using a Microplate Spectrophotometry (TriStar® S LB 942 model instrument). The IC50 values were determined from the absorbance obtained for various concentrations of the test and the standard compounds. All determinations were performed in triplicate.
(§9) To determine the % of inhibition ([I] = 100 μM), the substrate concentration (acetylthiocholine iodide for AChE; S-butyrylthiocholine iodide for BuChE) was fixed at 3 mM.
For orientation: In Ellman's method for cholinesterases, released thiocholine reacts with DTNB.

Series [5] has as its target T2, eqBuChE (Equus caballus, UniProt P81908).
T2 construct: equine serum butyrylcholinesterase (eqBuChE); purchased Sigma-Aldrich (lyophilized powder, 10.9 U/mg); host or cells: equine serum
The series is described as follows: Ellman cholinesterase inhibitory assay, eqBuChE (screening and IC50). The format is biochemical. As to conditions: for inhibition at 100 µM: compound 100 µM, substrate 3 mM. How it is done: as §7, §8, §9

Series [6] deals with T2, eqBuChE. The series is described as follows: Kinetic study for the inhibition of eqBuChE (Lineweaver-Burk). The format is biochemical. An excerpt: The interaction with the active center of the enzyme thus seems to be favored by the presence of polar groups. Hybrid IIf presented the smaller Ki (Table 3), binding to the enzyme with the higher affinity, which can be relevant for pharmacologic applications in the future.
Lineweaver–Burk plot (1/V vs. 1/[BTCI]) was used for determining the inhibition constants (Ki’s) and the mechanism of action.

The nature of series [7]: DPPH radical scavenging antioxidant assay. The method, then: To assess the antioxidant activity of hybrids IVa–e, IIf and quercetin, the 2,2-diphenyl-1-[…] (DPPH) radical scavenging colorimetric method was used, which is one of the most widely used methods for determining antioxidant activity. In this method, antioxidants react with DPPH (which has a strong violet color) and convert it into yellow diphenylpicrylhydrazine. Compounds were assayed in the range of concentrations from 3 to 200 μg/mL. Ascorbic acid was used as positive control. […] Another piece of evidence is the similarity between the % inhibition values of hybrids IVa,b and IVd,e and quercetin.
The colorimetric DPPH assay was carried out as described in [33]. […] In brief, 30 μL of a test compound (in MeOH) was mixed with 200 μL of DPPH (100 μM in methanol) in a 96-well plate in triplicate. After 30 min incubation at room temperature in the absence of light, the absorbances were measured at 517 nm using Microplate Spectrophotometry (TriStar® S LB 942 model instrument). The free radical scavenging activity results are expressed as a percentage of DPPH inhibition according to the following formula:
% of Inhibition = 100[(A(Blank) − A(sample))/A(blank)], where A(blank) consists of methanol (30 μL) mixed with DPPH (200 μL) absorbance, and A(sample) is the absorbance value for the added sample concentration compound mixed with DPPH. Ascorbic acid was used as a positive control.

The nature of series [8]: Artemia salina lethal toxicity assay. It is filed as in vivo. As to conditions: Artemia salina, in vivo, other: grown in the presence of the compound, Artemia salina nauplii. The method, then:
as §5, §6

In series [9] the test system is REM-138 cell line (canine breast cancer). Also noted: method as in doi:10.1055/s-0040-1719928. To be noted: REM cells; 72 h incubation; cited from earlier work.
[10] abbreviates: concentration range 1.2-300 µM, BTCI 0.8 mM, read-out: IC50 values for eqBuChE.

T1 sequence (O42275 24-633): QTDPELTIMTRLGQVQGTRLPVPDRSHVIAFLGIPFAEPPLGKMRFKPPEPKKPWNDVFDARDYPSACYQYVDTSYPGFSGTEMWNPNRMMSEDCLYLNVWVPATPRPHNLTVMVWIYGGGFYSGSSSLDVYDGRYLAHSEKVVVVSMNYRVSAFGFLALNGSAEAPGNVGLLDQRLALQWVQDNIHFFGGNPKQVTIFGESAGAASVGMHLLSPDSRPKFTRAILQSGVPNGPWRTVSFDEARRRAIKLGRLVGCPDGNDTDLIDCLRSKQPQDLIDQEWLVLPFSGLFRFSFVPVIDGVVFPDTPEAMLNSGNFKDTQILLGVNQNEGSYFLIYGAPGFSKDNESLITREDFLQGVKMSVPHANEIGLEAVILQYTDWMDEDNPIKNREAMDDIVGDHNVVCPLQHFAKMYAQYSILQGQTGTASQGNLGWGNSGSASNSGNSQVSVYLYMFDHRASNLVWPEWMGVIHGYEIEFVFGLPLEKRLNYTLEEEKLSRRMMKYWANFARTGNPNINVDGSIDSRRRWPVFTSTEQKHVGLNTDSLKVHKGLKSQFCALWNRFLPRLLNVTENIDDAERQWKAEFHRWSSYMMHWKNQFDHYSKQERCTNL
T2 sequence (P81908 whole entry): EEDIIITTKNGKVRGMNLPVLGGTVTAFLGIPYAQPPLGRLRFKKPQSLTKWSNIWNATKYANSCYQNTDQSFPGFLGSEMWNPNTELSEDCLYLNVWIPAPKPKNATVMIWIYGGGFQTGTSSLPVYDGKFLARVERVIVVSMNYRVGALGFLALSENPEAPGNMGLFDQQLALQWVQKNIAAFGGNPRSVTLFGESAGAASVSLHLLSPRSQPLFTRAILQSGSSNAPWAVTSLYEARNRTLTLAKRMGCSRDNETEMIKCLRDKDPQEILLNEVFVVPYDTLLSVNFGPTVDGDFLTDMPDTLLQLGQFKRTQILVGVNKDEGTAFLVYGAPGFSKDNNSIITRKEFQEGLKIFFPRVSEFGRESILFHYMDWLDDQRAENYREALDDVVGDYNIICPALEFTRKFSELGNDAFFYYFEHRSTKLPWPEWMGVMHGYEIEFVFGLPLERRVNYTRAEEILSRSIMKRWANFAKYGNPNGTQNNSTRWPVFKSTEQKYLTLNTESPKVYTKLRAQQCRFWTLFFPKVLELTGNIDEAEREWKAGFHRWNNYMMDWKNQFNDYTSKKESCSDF

For the molecule `COc1ccc2c3c1O[C@H]1C[C@@H](O)C=C[C@@]31CCN(C)C2` [Galantamine, reference compound], the “effect on cellular viability” value in series [1] (concentrations tested 6.25-50 μM) is recorded as “did not reduce cellular viability”. For the same molecule, the “cellular antioxidant protection against H2O2” value in series [2] is reported as “good antioxidant cellular protection”.
One may read the LC50 as the concentration that kills 50% of the test population. Molecule `[K+].[K+].[O]=[Cr](=[O])([O-])[O][Cr](=[O])(=[O])[O-]` [Hybrid K2Cr2O7, K2Cr2O7, reference compound] came in with a 50% lethal concentration (LC50) in series [3] (Artemia salina nauplii, quality control) of 22.7 µg/mL.
Usually inhibition stands for the change of the read-out against control, counted positive when it falls. Higher therefore signals strong suppression. By IC50 is commonly meant the concentration that inhibits the measured activity by half. Broadly, the Ki is the equilibrium dissociation constant of an inhibitor or competing ligand from its target. Regarding `COc1cc(OC)c2c(=O)c(OCCCCn3cc(CN4C(=O)C(=O)c5ccccc54)nn3)c(-c3ccc(OC)c(OC)c3)oc2c1` [IIf, 1-((1-(4-((2-(3,4-Dimethoxyphenyl)-5,7-dimethoxy-4-oxo-4H-chromen-3-yl)oxy)butyl)-1H-1,2,3-triazol-4-yl)methyl)indoline-2,3-dione], the inhibition at 100 µM in [4] stood at 24.3%; in series [5], 100%. Moreover, in [5] (setting [10]), the IC50 stood at 11.2 µM. Also, the Inhibition type result in [6] (Lineweaver-Burk) is given as “competitive inhibition”. Moreover, the Ki in [6] (Lineweaver-Burk, read-out: Ki (inhibitory constant)) worked out at 6.2 µM. The Vmax app in series [6] (inhibitor 5 µM) came out at 11.8 U.mg^−1; in series [6] (inhibitor 20 µM), 11.4 U.mg^−1; in [6] (inhibitor 40 µM) it was 13.4 U.mg^−1. Also, the DPPH antioxidant activity result in series [7] (3 to 200 μg/mL) is recorded as “no antioxidant activity”. In series [2], the “cellular antioxidant protection against H2O2” value is “equally effective in the antioxidant protection”. In addition, the LC50 in series [8] was found to be 34.6 µM. The molecule further showed a concentrations without toxicity in series [3] (Artemia salina) of at most 10 µM.
Regarding `COc1cc(OC)c2c(=O)c(OCCCCn3cc(CO)nn3)c(-c3ccc(OC)c(OC)c3)oc2c1` [IIg, 2-(3,4-Dimethoxyphenyl)-3-(4-(4-(hydroxymethyl)-1H-1,2,3-triazol-1-yl)butoxy)-5,7-dimethoxy-4H-chromen-4-one], the inhibition at 100 µM was determined as 0% in [4] and 53.8% in series [5]. The half-maximal inhibitory concentration (IC50) in series [5] (setting [10]) was over 300 µM.
The matching figures for `CCCc1cn(CCCCOc2c(-c3ccc(OC)c(OC)c3)oc3cc(OC)cc(OC)c3c2=O)nn1` [IIh, 2-(3,4-Dimethoxyphenyl)-5,7-dimethoxy-3-(4-(4-propyl-1H-1,2,3-triazol-1-yl)butoxy)-4H-chromen-4-one]: 38.6%, 7.97% and over 300 µM.
The matching figures for `COc1cc(OC)c2c(=O)c(OCCCCn3cc(C(C)(C)N)nn3)c(-c3ccc(OC)c(OC)c3)oc2c1` [IIi, 3-(4-(4-(2-Aminopropan-2-yl)-1H-1,2,3-triazol-1-yl)butoxy)-2-(3,4-dimethoxyphenyl)-5,7-dimethoxy-4H-chromen-4-one]: 0%, 74.4% and 70.2 µM.
In the case of `O=c1c(OCCCCn2cc(-c3ccccc3)nn2)c(-c2ccc(O)c(O)c2)oc2cc(O)cc(O)c12` [IVa, 2-(3,4-Dihydroxyphenyl)-5,7-dihydroxy-3-(4-(4-phenyl-1H-1,2,3-triazol-1-yl)butoxy)-4H-chromen-4-one], the inhibition at 100 µM in [4] was determined as 0%; in [5], 82.8%. Besides, in series [5] (setting [10]), the IC50 is 24.7 µM. Further, in [7] (100 μg/mL), the DPPH antioxidant activity entry was “potent antioxidant activity”. In addition, the “reduction of cellular viability” value in [1] (6.25 μM, 2 h, without H2O2) was found to be 40%. Also, in series [9], the cytotoxic concentration is on record as over 10 µM.
Regarding `O=c1c(OCCCCn2cc(C3(O)CCCC3)nn2)c(-c2ccc(O)c(O)c2)oc2cc(O)cc(O)c12` [IVc, 2-(3,4-Dihydroxyphenyl)-5,7-dihydroxy-3-(4-(4-(1-hydroxycyclopentyl)-1H-1,2,3-triazol-1-yl)butoxy)-4H-chromen-4-one], the inhibition at 100 µM amounted to 21.6% in [4] and 69.9% in [5]. Moreover, in series [5] (setting [10]), the 50% inhibitory concentration (IC50) was found to be 65.7 µM.
On to `Cc1ccc(C(C)C)c(OCc2cn(CCCCOc3c(-c4ccc(O)c(O)c4)oc4cc(O)cc(O)c4c3=O)nn2)c1` [IVe, 2-(3,4-Dihydroxyphenyl)-5,7-dihydroxy-3-(4-(4-((2-isopropyl-5-methylphenoxy)methyl)-1H-1,2,3-triazol-1-yl)butoxy)-4H-chromen-4-one], for which the inhibition at 100 µM in series [4] turned out to be 29.1%; in series [5], 63.4%. Also, the IC50 in [5] (setting [10]) is over 150 µM. Also, the DPPH antioxidant activity entry in [7] (100 μg/mL) is reported as “potent antioxidant activity”.
Take `COc1cc(OC)c2c(=O)c(OCc3cn(Cc4ccccc4)nn3)c(-c3ccc(OC)c(OC)c3)oc2c1` [Ia, 3-((1-Benzyl-1H-1,2,3-triazol-4-yl)methoxy)-2-(3,4-dimethoxyphenyl)-5,7-dimethoxy-4H-chromen-4-one]: the figures for the inhibition at 100 µM in series [4] and in series [5] were 0% and 54.4%, respectively.
The matching figures for `COc1cc(OC)c2c(=O)c(OCc3cn(Cc4cccc(Cl)c4)nn3)c(-c3ccc(OC)c(OC)c3)oc2c1` [Ib, 3-((1-(3-Chlorobenzyl)-1H-1,2,3-triazol-4-yl)methoxy)-2-(3,4-dimethoxyphenyl)-5,7-dimethoxy-4H-chromen-4-one]: 0% and 63.3%.
In the case of `O=c1c(O)c(-c2ccc(O)c(O)c2)oc2cc(O)cc(O)c12` [Quercetin], testing at 100 µM in series [4] gave an inhibition of 8.18%. In series [5], this molecule gave a 50% inhibitory concentration (IC50) of 18.2 µM and an inhibition at 100 µM of 100%. Moreover, the “cellular antioxidant protection against H2O2” value in series [2] is “low capacity in cellular protection”.
